In US6589549B2, “Bioactive agent delivering system comprised of microparticles within a biodegradable to improve release profiles” (Macromed, Incorporated, priority 2000, dated 2003):

Conditions: in the presence of the block copolymer

SMILES: CC(=O)O[C@H]1C(=O)[C@@]2(C)[C@H]([C@H](OC(=O)c3ccccc3)[C@]3(O)C[C@H](OC(=O)[C@H](O)[C@@H](NC(=O)c4ccccc4)c4ccccc4)C(C)=C1C3(C)C)[C@]1(OC(C)=O)CO[C@@H]1C[C@@H]2O [paclitaxel]
- chemical stability in the aqueous polymer composition relative to aqueous solutions with organic co-solvents: substantially stabilized
